In experiment [1] the test system is MTB. To be noted: cited from earlier work.
Experiment [2] deals with MTB H37Rv lacking Rv0324. It counts as cell-based, Mycobacterium tuberculosis.
Experiment [3] addresses mycobacterial F1Fo ATP synthase (Mycobacterium tuberculosis, UniProt P9WPS1+P9WPV7). The conditions noted are these: cited from earlier work.
Experiment [4] concerns MTB. It counts as cell-based, Mycobacterium tuberculosis.
Experiment [5] concerns MTB H37Rv wildtype. Type of experiment: cell-based, Mycobacterium tuberculosis.
In experiment [6] the test system is Rv2323c'::GFP strain (Rv0324-responsive promoter). Type of experiment: cell-based, Mycobacterium tuberculosis. The conditions noted are these: in the presence of BDQ, FIG. 2.
The test system of experiment [7] is MTB H37Rv lacking Rv0880. Type of experiment: cell-based, Mycobacterium tuberculosis.

Read-outs that look alike come from different tables or passages of the source. A value given as a limit tells only on which side of the number the result lay.

Turning to `COc1nc2ccc(Br)cc2cc1[C@@H](c1ccccc1)[C@@](O)(CCN(C)C)c1cccc2ccccc12` [bedaquiline], the MTB killing result in experiment [1] (after 96 hours) is “effective MTB killing occurs”. In addition, the bactericidal activity result in experiment [1] (during the first 4-6 days) was “almost no bactericidal activity”. Also, the bactericidal activity result in experiment [1] (first 96 hours after BDQ treatment, even at 30 times the MIC) is “little bactericidal activity”. Moreover, in experiment [2], the “greater survival deficiency compared to the wildtype” value turned out to be 1.8 log10 and the “overall growth over seven days of treatment” value is listed as “negative overall growth”. Moreover, the “selectivity for mycobacterial F1Fo ATP synthase” value in experiment [3] is “high selectivity”. Moreover, in experiment [4], the “decrease in Rv0880 expression” value is reported as above 2.0 absolute log2 fold-change, the “genes significantly differentially expressed compared to untreated samples” value is given as 1,121 genes and the “increase in Rv0324 expression upon bedaquiline treatment” value is above 1.5 absolute log2 fold-change. In addition, in experiment [4] (15 μM BDQ, 48 and 96 hours combined), the “downregulated genes among the differentially expressed genes” value was 897 genes. In experiment [5], the “overall growth rate over seven days of treatment” value is reported as “positive growth rate”. In addition, in experiment [6], the “GFP fluorescence of the reporter strain” value is reported as “high level of fluorescence”. In addition, in experiment [7], the “greater survival deficiency compared to the wildtype” value is listed as 1.3 -fold log10 and the “overall growth over seven days of treatment” value is “negative overall growth”.
